Data as given in patent US20100075894A1, “REDUCING ER STRESS IN THE TREATMENT OF OBESITY AND DIABETES” (HARVARD UNIVERSITY, priority 2004, published 2010).
Entries after “also recorded” stand apart in the source; their conditions may differ.

Legend:
ER stress = ER stress markers in animals, western blot after treatment with the compound; type: in vivo; conditions: for activation of JNK / phosphorylation of IRE-1α / phosphorylation of PERK: animals treated with the compound, western blot; for ER stress: overall statement
Source text: (§1) For example, obesity increases the demand on the synthetic machinery of the cell in many secretory organ systems and is also associated with abnormalities in intracellular energy fluxes and nutrient availability. The present invention stems from the recognition that many of these diseases associated with obesity cause ER stress, particularly in peripheral tissues, and that ER stress is involved in triggering insulin resistance and type 2 diabetes, two sequelae of obesity. […] The agents useful in the treatment of these diseases include small molecules, proteins, nucleic acids, and any other chemical compounds known to reduce or prevent ER stress. These agents make act in any manner that reduces or prevents ER stress such as reducing the production of mutant or misfolded proteins, increasing the expression of ER chaperones, increasing the stability of proteins, boosting the processing capacity of the ER, etc. Particularly useful agents include chemical chaperones such as 4-phenyl butyrate (PBA), tauroursodeoxycholic acid (TUDCA), trimethylamine N-oxide (TMAO), glycerol, D2O, dimethylsufloxide, glycine betaine, methyl amines, and glycerophosphocholine. […] The agents may be administered in any manner known in the drug delivery art although preferably the agent is delivered orally or parenterally. Dose ranges for these agents depend on the agent being delivered as well as other factors but will typically be from 10 mg/kg/day to 10 g/kg/day.

JNK = JNK activity in liver tissue of obese mice after PBA; type: in vivo, mouse; conditions: FIG. 21
[1] = system: insulin receptor signaling; test: insulin receptor signaling in animals after treatment; type: in vivo; conditions: for serine phosphorylation of Akt / tyrosine phosphorylation of insulin receptor, insulin substrate 1-IRS-1 and IRS-1: animals; for insulin (receptor) signaling: overall statement
Source text: as §1

ob/ob mice [2] = test: 4-PBA in ob/ob mice: blood glucose, insulin tolerance test; type: in vivo, mouse; conditions: for blood glucose levels / insulin sensitivity in vivo: ob/ob mice
Experimental: A genetic (ob/ob) model of mouse obesity was used to analyze the effects of 4-phenyl butyrate (4-PBA) on insulin sensitivity and hyperglycemia. 10-12 weeks old, male, leptin deficient mice were obtained from Jackson Labs, acclimated by three times injection of PBS (3 times a day) for 4 days, and treated either with intraperitoneal injection of 4-PBA (1 g/kg/day in three divided doses) or phosphate buffer saline (PBS) (3 doses of 100 μl) for a period of 7 days. Fed blood glucose levels (mg/dl) at the 3rd and 7th days of trial (a). Insulin Tolerance Test (ITT) were performed on the 7th day after the first injection (b).
A genetic (ob/ob) model of mouse obesity was used to analyze the effects to 4-phenyl butyrate (4-PBA) on insulin sensitivity and hyperglycemia. 8-10 weeks old, male, leptin deficient mice were obtained from Jackson Labs, acclimated by PBS injection (2 times a day) for 4 days, and treated either with 4-PBA (500 mg/kg/day in two divided doses) or phosphate buffer saline (PBS) (2 doses of 200 μl) for a period of 20 days. Body weight during the treatment period (a). Blood glucose levels (mg/dl) after 6 hours of fasting at day 0 and day 20 (b). Insulin (ng/ml) levels at day 0 and day 20 (c). Insulin tolerance tests were performed at the 15th day of the treatment (d).
Animal Studies and Obesity Models: Adult (10-12 weeks of age) male ob/ob mice and their wild type (WT) littermates were purchased from Jackson Labs. Mice used in the diet-induced obesity model were male C57BL/6. All mice were placed on high fat diet (HFD: 35.5% fat, 20% protein, 32.7% carbohydrates, Bio-Serve) immediately after weaning (at ˜3 weeks of age). The XBP-1^+/− and XBP-1^+/+ mice were on Balb/C genetic background. Insulin and glucose tolerance tests were performed as previously described (Hirosumi et al., Nature 420:333 (2002); incorporated herein by reference). Insulin and C-peptide ELISA were performed according to manufacturer's instructions using mouse standards (Crystal Chem. Inc., Downers Grove, Ill.). Pancreas isolated from 16-week-old mice was fixed in Bouin's fluid and formalin, and paraffin sections were double-stained with guinea pig anti-insulin and rabbit anti-glucagon antibodies. Texas red dye conjugated donkey anti-guinea pig IgG and FITC conjugated Goat anti-rabbit IgG were used as secondary antibodies.

ob/ob mice [3] = test: TUDCA in ob/ob mice: blood glucose, ITT; type: in vivo, mouse
Experimental: 9-10 weeks old ob/ob and their age and sex matched lean controls were used to analyze the effects of TUDCA on glucose metabolism and diabetes. After acclimation with PBS injection (once a day, 200 μl i.p. injection) for 4 days, mice were injected intraperitoneally with TUDCA (500 mg/kg once a day in 200 μl of PBS) (n=6 for lean and n=7 for ob/ob) and PBS (200 μl) (n=6 lean and n=7 for ob/ob). Blood glucose levels on the 4th, 7th, and 10th days after first injection (a). ITT on 10 days after the first injection (b).

ob/ob mice [4] = test: TMAO in ob/ob mice: fed blood glucose, serum insulin; type: in vivo, mouse
Experimental: Experiments were performed using the ob/ob genetic model of obesity and insulin resistance (C57BL/6J-Lep-ob mice purchased from Jackson Laboratory, Bar Harbor, Me.). At seven weeks of age, treatments were started after acclimatization for 5 days by administration of PBS. After this period, TMAO (Sigma, T0514) was dissolved in PBS and administered by intraperitoneal (IP) injection every 24 hours at a dose of 1 g/kg/day. At the indicated days, fed blood glucose levels were measured at 8:00 AM using an automated glucometer system. For insulin measurements, blood samples were collected after 6 hours of fasting and serum insulin levels were determined using a specific ELISA (Crystal Chem, 90060). Each treatment group contained at least six animals per experimental group.

ob/ob mice [5] = test: sodium 4-phenylbutyrate and metformin in ob/ob mice: fed blood glucose; type: in vivo, mouse; conditions: oral gavage daily, 200 mg/kg/day (each), fed state
Experimental: Experiments are performed using the ob/ob genetic model of obesity and insulin resistance (C57B6. V-Lepob/OlaHsd mice were purchased from Harlan Teklad, Madison, Wis.). At seven weeks of age, treatments were started after acclimatization for 5 days by administration of PBS. After this period, PBS, sodium 4-phenylbutyrate (200 mg/kg/day), metformin (200 mg/kg/day), and sodium 4-phenylbutyrate plus metformin (200 mg/kg/day each) were administered into four separate experimental groups of mice (with at least six mice in each group) by oral gavage daily. […] Blood glucose levels were measured at the fed state at 8:00 AM.

Fao liver cells = test: ER stress inducers and insulin action in Fao liver cells; type: cell-based, rat; conditions: Fao cells, FIG. 12A
Experimental: (A) ER stress was induced in Fao liver cells by a 3-hour treatment with 5 μg/ml tunicamycin (Tun). Cells were subsequently stimulated with insulin (Ins). IRS-1 tyrosine and serine (Ser307) phosphorylation, Akt phosphorylation (Ser473), insulin receptor (IR) tyrosine phosphorylation, and their total protein levels were examined using either immunoprecipitation (IP) followed by immunoblotting (IB) or direct immunoblotting. (B) Quantitation of IRS-1 (tyrosine and Ser307), Akt (Ser473), and IR (tyrosine) phosphorylation under the experimental conditions described in (A) with normalization to protein levels for each molecule. (C) Inhibition of ER stress-induced (300 nM thapsigargin for 4 hours) Ser307 phosphorylation of IRS-1 by JNK-1 inhibitor, SP600125 (JNKi, 25 μM), (D) Quantitation of IRS-1 Ser307 phosphorylation under conditions described in (C). (E) Reversal of ER stress-induced inhibition of insulin-stimulated tyrosine phosphorylation (pY) of IRS-1 by a JNK inhibitor. (F) Quantitation of insulin-induced IRS-1 tyrosine phosphorylation levels described in (E). (G) JNK activity, Ser307 phosphorylation of IRS-1, and total IRS-1 levels at indicated times following tunicamycin treatment (Tun, 10 μg/ml for 1 hour) in IRE-1α^+/+ and IRE-1α^−/− fibroblasts. (H) Insulin-stimulated IRS-1 tyrosine phosphorylation and total IRS-1 levels following tunicamycin treatment (Tun, 10 μg/ml for 1 hour) in IRE-1α^+/+ and IRE-1α^−/− fibroblasts. […] All graphs show mean±SEM from at least 2 independent experiments and statistical significance from the controls is indicated by * with p<0.005.
(A) ER stress was induced in Fao cells by 1 hour treatment with 300 nM thapsigargin (Thap), and cells were subsequently stimulated with insulin (Ins). IRS-1 tyrosine phosphorylation (pY) and serine phosphorylation (pSer307), insulin receptor (IR) tyrosine phosphorylation, and total protein levels were examined using either immunoprecipitation (IP) followed by immunoblotting (IB) or direct immunoblotting. (B) Fao cells were treated with sulindac sulfide (SS: 0, 7.5, 30, and 60 μM) for 45 minutes with or without an additional hour of exposure to 300 nM thapsigargin (Thap). IRS-1 serine phosphorylation and total IRS-1 protein levels were examined as described above.
To investigate whether ER stress interferes with insulin action, we pretreated Fao liver cells with tunicamycin and thapsigargin, agents commonly used to induce ER stress. […] IRS-1 is a substrate for insulin receptor tyrosine kinase and serine phosphorylation of IRS-1, particularly mediated by JNK, reduces insulin receptor signaling (Hirosumi et al., Nature 420:333 (2002); incorporated herein by reference).
Cells: Rat Fao liver cells were cultured with RPMI 1640 (Gibco, Grand Island, N.Y.) containing 10% fetal bovine serum (FBS). […]

[6] = FIG. 7, animals with insulin resistance and type 2 diabetes, 1 g/kg/day IP

Compound | activation of JNK (ER stress) | phosphorylation of IRE-1α (ER stress) | phosphorylation of PERK (ER stress) | ER stress (ER stress) | serine phosphorylation of Akt [1] | tyrosine phosphorylation of insulin receptor, insulin substrate 1-IRS-1 and IRS-1 [1] | insulin (receptor) signaling [1] | glucose levels (ob/ob mice [4]; [6]) | blood glucose (ob/ob mice [5]) | other results
O=C(O)CCCc1ccccc1 [PBA, 4-phenyl butyric acid] | reduced | reduced | reduced | regulate ER stress in animals; also recorded: reduce ER stress | increased | increased | regulate insulin receptor signaling |  |  | JNK activity in liver tissue (JNK): normalization of JNK activity; blood glucose (ob/ob mice [2]; FIGS. 4 and 5): effective in reducing blood glucose; insulin sensitivity (ob/ob mice [2]; FIGS. 4 and 5): increasing insulin sensitivity; blood glucose levels (ob/ob mice [2]; oral route 500 mg/kg/day in two divided doses, 20 days): lowers blood glucose levels; insulin sensitivity in vivo (ob/ob mice [2]; oral route 500 mg/kg/day, ITT at 15th day): increases insulin sensitivity; blood glucose levels (ob/ob mice [2]; parenteral (intraperitoneal) 1 g/kg/day in three divided doses, 7 days): lowers blood glucose levels; insulin sensitivity in vivo (ob/ob mice [2]; parenteral (intraperitoneal) 1 g/kg/day, ITT on 7th day): increases insulin sensitivity
C[C@H](CCC(=O)NCCS(=O)(=O)O)[C@H]1CC[C@H]2[C@@H]3[C@@H](O)C[C@@H]4C[C@H](O)CC[C@]4(C)[C@H]3CC[C@]12C [TUDCA, tauroursodeoxycholic acid] | reduced | reduced | reduced | regulate ER stress in animals; also recorded: reduce ER stress | increased | increased | regulate insulin receptor signaling | reduce blood glucose levels |  | diabetes (ob/ob mice [3]; 500 mg/kg once a day i.p.): reverses diabetes; blood glucose levels (ob/ob mice [3]; FIG. 6, 500 mg/kg once a day i.p.): reduce blood glucose levels; insulin sensitivity (ob/ob mice [3]; FIG. 6, 500 mg/kg once a day i.p., 500 mg/kg): increases insulin sensitivity; insulin sensitivity (ob/ob mice [4]; FIG. 7): increase insulin sensitivity
CN(C)C(=N)N=C(N)N [metformin] |  |  |  |  |  |  |  |  | did not have any effect on blood glucose | 
O=C([O-])CCCc1ccccc1.[Na+] [sodium 4-phenylbutyrate] |  |  |  |  |  |  |  |  | did not have any effect on blood glucose | 
C/C=C(/C)C(=O)O[C@H]1C(C)=C2[C@H]([C@@H]1OC(=O)CCCCCCC)[C@@](C)(OC(C)=O)C[C@H](OC(=O)CCC)[C@@]1(O)[C@H]2OC(=O)[C@@]1(C)O [thapsigargin] |  |  |  |  |  |  |  |  |  | insulin receptor signaling (as for tunicamycin) (Fao liver cells): Similar, results were also obtained
trimethylamine N-oxide [TMAO] |  |  |  | reduce ER stress |  |  |  | lowering |  | anti-diabetic effect (ob/ob mice [4]; FIG. 7, ob/ob mice, 1 g/kg/day IP): act as an anti-diabetic agent in vivo; also recorded: anti-diabetic effect; insulin levels (ob/ob mice [4]; animals with insulin resistance and type 2 diabetes, 1 g/kg/day IP): lowering
